# Measurements published in patent US20070191426A1, “Derivatives of 3-aminocarbonylquinoline, pharmaceutical compositions containing them and processes and intermediates for their preparation” (priority 2003, published 2007).
# Target: PDE5 (human recombinant) (Homo sapiens, UniProt O76074)
# Assay: Inhibition of PDE5 activity: radioactive Scintillation Proximity Assay (SPA)
# Type: biochemical
# Details: SPA assay (all Examples); read-out: PDE5 mean pIC50 (converted)
# From the text: Human recombinant PDE5 is disclosed in K. Loughney et al., “Isolation and characterization of cDNAs encoding PDE5A, a human cGMP-binding, cGMP-specific 3′,5′-cyclic nucleotide phosphodiesterase”, Gene, 1998, 216, 139-147.
# (§1) Inhibition of PDE3, PDE4B, PDE4D, PDE5 or PDE6 Activity: Radioactive Scintillation Proximity Assay (SPA)
# (§2) The ability of compounds to inhibit catalytic activity at PDE4B or 4D (human recombinant), PDE3 (from bovine aorta) PDE5 (human recombinant) or PDE 6 (from bovine retina) was may be determined by Scintillation Proximity Assay (SPA) in 96-well format. Test compounds (preferably as a solution in DMSO, e.g. 2 microlitre (μl) volume) were preincubated at ambient temperature in Wallac Isoplates (code 1450-514) with PDE enzyme in 50 mM Tris-HCl buffer pH 7.5, 8.3 mM MgCl2, 1.7 mM EGTA, 0.05% (w/v) bovine serum albumin for 10-30 minutes. The enzyme concentration was adjusted so that control rates are linear over the assay incubation period. For the PDE3, PDE4B and PDE4D assays […] 3′,5′-cyclic phosphate (Amersham Pharmacia Biotech, code TRK.559 or Amersham Biosciences UK Ltd, Pollards Wood, Chalfont St Giles, Buckinghamshire HP8 4SP, UK) was added to give 0.05 μCi per well and ˜10 nM final concentration. For the PDE5 and PDE6 assays [8-^3H]guanosine 3′,5′-cyclic phosphate (Amersham Pharmacia Biotech , code TRK.392) was added to give 0.05 μCi per well and ˜36 nM final concentration. Plates e.g. containing approx. 100 μl volume of assay mixture were mixed on an orbital shaker for 5 minutes and incubated at ambient temperature for 1 hour. Phosphodiesterase SPA beads (Amersham Pharmacia Biotech, code RPNQ 0150) were added (˜1 mg per well) to terminate the assay. Plates were sealed and shaken and allowed to stand at ambient temperature for 35 minutes to 1 hour to allow the beads to settle. Bound radioactive product was measured using a WALLAC TRILUX 1450 MicroBeta scintillation counter. […] Curves were analyzed using ActivityBase and XLfit (ID Business Solutions Limited, 2 Ocean Court, Surrey Research Park, Guildford, Surrey GU2 7QB, United Kindgom). Results were expressed as pIC50 values.
row,IC50 [nM],SMILES
1,> 31600,CNC(=O)c1ccc2ncc(C(N)=O)c(Nc3cccc(OC)c3)c2c1 [Example 6]
2,> 31600,"COc1cccc(Nc2c(C(N)=O)cnc3ccc(C(=O)N4CCOCC4)cc23)c1 [Example 1, 4-{[3-(Methyloxy)phenyl]amino}-6-(4-morpholinylcarbonyl)-3-quinolinecarboxamide]"
3,> 31600,COc1cccc(Nc2c(C(N)=O)cnc3ccc(C(=O)NC(C)(C)C)cc23)c1 [Example 3]
4,> 31600,"COc1cccc(Nc2c(C(N)=O)cnc3ccc(C(=O)Nc4ccccc4)cc23)c1 [Example 2, 4-{[3-(methyloxy)phenyl]amino}-N^6-phenyl-3,6-quinolinedicarboxamide]"

# Target: T1, PDE4B (human recombinant) (Homo sapiens, UniProt Q07343)
# T1 construct: made in house
# T1 sequence (Q07343 1-564 isoform Q07343-2): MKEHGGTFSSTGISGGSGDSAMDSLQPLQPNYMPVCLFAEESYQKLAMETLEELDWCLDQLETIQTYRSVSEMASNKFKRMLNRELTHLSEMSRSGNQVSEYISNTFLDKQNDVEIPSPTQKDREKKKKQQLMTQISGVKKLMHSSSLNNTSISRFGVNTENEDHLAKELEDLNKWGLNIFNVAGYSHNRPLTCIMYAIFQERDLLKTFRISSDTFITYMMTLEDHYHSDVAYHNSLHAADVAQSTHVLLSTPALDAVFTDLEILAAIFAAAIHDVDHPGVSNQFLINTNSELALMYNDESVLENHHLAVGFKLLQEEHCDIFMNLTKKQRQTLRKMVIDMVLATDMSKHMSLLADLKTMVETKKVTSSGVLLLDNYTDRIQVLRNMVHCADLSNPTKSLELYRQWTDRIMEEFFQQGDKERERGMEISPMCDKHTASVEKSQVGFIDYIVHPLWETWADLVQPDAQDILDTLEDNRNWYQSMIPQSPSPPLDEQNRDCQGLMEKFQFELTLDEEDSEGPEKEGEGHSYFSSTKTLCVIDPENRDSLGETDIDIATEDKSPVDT
# Assay: Inhibition of PDE4B activity: radioactive Scintillation Proximity Assay (SPA)
# Type: biochemical
# Details: SPA assay (Examples 1 to 6); read-out: PDE4B mean pIC50 (converted)
# From the text: Human recombinant PDE4B, in particular the 2B splice variant thereof (HSPDE4B2B), is disclosed in WO 94/20079 and also in M. M. McLaughlin et al., “A low Km, rolipram-sensitive, cAMP-specific phosphodiesterase from human brain: cloning and expression of cDNA, biochemical characterization of recombinant protein, and tissue distribution of mRNA”, J. Biol. Chem., 1993, 268, 6470-6476. For example, in Example 1 of WO 94/20079, human recombinant PDE4B is described as being expressed in the PDE-deficient yeast Saccharomyces cerevisiae strain GL62, e.g. after induction by addition of 150 uM CuSO4, and 100,000×g supernatant fractions of yeast cell lysates are described for use in the harvesting of PDE4B enzyme.
# as §1, §2
row,IC50 [nM],SMILES
1,501,CNC(=O)c1ccc2ncc(C(N)=O)c(Nc3cccc(OC)c3)c2c1 [Example 6]
2,10,"COc1cccc(Nc2c(C(N)=O)cnc3ccc(C(=O)N4CCOCC4)cc23)c1 [Example 1, 4-{[3-(Methyloxy)phenyl]amino}-6-(4-morpholinylcarbonyl)-3-quinolinecarboxamide]"
3,39.8,COc1cccc(Nc2c(C(N)=O)cnc3ccc(C(=O)NC(C)(C)C)cc23)c1 [Example 3]
4,25.1,"COc1cccc(Nc2c(C(N)=O)cnc3ccc(C(=O)Nc4ccccc4)cc23)c1 [Example 2, 4-{[3-(methyloxy)phenyl]amino}-N^6-phenyl-3,6-quinolinedicarboxamide]"
